Laboratory results published in patent US4132738A, “Preparation of 15-deoxy-16-hydroxyprostaglandins” (Miles Laboratories, Inc., priority 1978, dated 1979).

Legend:
guinea pig trachea = experiment: Effects on the guinea pig trachea in vitro; format: cell-based; details: comparison in words
Description: A male guinea pig weighing 200-500 g was killed by a blow on the head. A 20 mm length of the trachea was dissected from the animal, transferred to a petri dish containing Krebs' solution (aerated with 95% O2 and 5% CO2 at 37° C.), and cut longitudinally opposite the tracheal muscle. The tissue was then cut transversely three quarters of the distance across, a second cut in the opposite direction (again three quarters of the distance across the tissue) was made and the procedure was continued for the whole tissue. The ends of the trachea were pulled to form a zig-zig shaped strip. The tracheal strip used in the experiment was approximately 30 mm when extended under 0.25-0.5 g load in the tissue bath. Cotton thread was tied to one end of the tissue, and linen thread to the other. It was attached via the linen thread to a glass hook in a 5 ml isolated tissue bath containing Krebs' solution (37° C., aerated with a mixture of 95% O2 and 5% CO2). The opposite end was attached via cotton to an isotonic Harvard transducer (Model 386 Heart/Smooth Muscle Transducer, Harvard Apparatus). The load on the transducer lever was small, usually 0.3 g, with a range of 0.25-0.5 g, and the magnification high, 80 fold using an appropriate twin-channel pen recorder. A minimum of thirty minutes was allowed before applying a test compound to the tissue. Test compounds were then applied (in volumes of 0.5 ml) at thirty minute intervals, being in contact with the tissue for five minutes followed by an overflow washout time of twenty seconds.
Prostaglandin E1, at a bath concentration of 0.1 mcg/ml, was then tested repeatedly on two such strips, obtained from two different animals, until two responses (the values of which are recorded) differing by no more than 25% occur. A test compound was then added to the same two strips at bath concentrations of 0.01, 0.1, 1.0, and 10.0 mcg/ml and the effects of the compound were recorded. After the test compound had been evaluated at the highest concentration, PGE1 was retested at 0.1 mcg/ml (and the value of the response recorded) to insure that the viability of the strips was retained during the experiment. The mean of the effects of the test compound on the two strips was then calculated for each concentration, and, biased on the resulting values, an activity value was assigned as follows: […]

[1] = tested on: gastric secretion in the rat; experiment: Effects on gastric secretion in the rat; format: in vivo; details: comparison in words
Description: A procedure based on that described by Lipman, W. (J. Pharm. Pharmacol., 21: 335 [1968]) was used to assess the influence of test compounds on gastric secretion. Rats of one sex weighing 150 to 200 g were randomly divided into groups of six animals each and fasted for 48 hours previous to the experiments, water being available ad libitum. The animals were anesthetized with ether, the abdomen opened through a midline incision, and the pylorus ligated. Test compounds were diluted from stock solution so as to administer a dose of 1.5 mg/kg in a volume equivalent to 1 ml/kg. Subcutaneous injections were applied immediately after surgery and again 2 hours later, so that a total dose of 3.0 mg/kg was administered. Dilutions were made with phosphate buffer (pH 7.38) as recommended by Lee et al. (Prostaglandins, 3: 29 [1973]) in order to insure adequate stability of drugs at the subcutaneous depot. Each compound was tested in one group of rats; an additional control group received only the vehicle.
Four hours after pyllric ligation the animals were killed with ether, the cardias ligated, and the stomachs removed. The volume of gastric secretion was measured and the contents centrifuged at 5000 rpm for 10 minutes. Total acid in the supernatant was titrated against a 0.1 N sodium hydroxide solution and the amount expressed in mEq.
Volume and total acid values of the treated group were compared with those of the controls […]. Antisecretory activity was scored according to the following scale: […]

[2] = tested on: femoral blood flow in the anesthetized dog; experiment: Effects on femoral blood flow in the anesthetized dog; format: in vivo; details: comparison in words
Description: The peripheral vasodilator or constrictor effects of test compounds were determined in mongrel dogs of either sex, weighing between 10 and 20 kg, anesthetized intravenously with 35 mg/kg of pentobarbital sodium. An external iliac artery was dissected immediately above the femoral arch for a length of approximately 5 cm, and a previously calibarated, non-cannulating electromagnetic-flowmeter sensor with a lumen between 2.5 and 3.5 mm was placed snugly around the vessel. Cannulas were placed in a branch of the artery arising distally to the location of the flowmeter sensor for intraarterial drug administrations, in the contralateral femoral artery for systemic blood pressure recording, and in the trachea for artificial respiration with room air. Femoral blood flow and systemic blood pressure were continuously recorded with an electromagnetic flowmeter and pressure transducer, respectively.
After an adequate control period, test compounds were injected intraarterially at one log-spaced doses ranging from 0.001 to 10 mcg, in a volume of 0.5 ml and at 5 to 10 minute intervals. […] The dose changing blood flow by 100 ml/min (ED100 ml/min) was calculated graphically and was used for scoring activity as follows: […]

[3] = tested on: blood pressure in the hypertensive rat; experiment: Effects on systolic blood pressure in the hypertensive rat; format: in vivo; design: key: 0: Not significant at any time interval; 1: Significant at one time interval; 2: Significant at two time intervals; details: 1 mg/kg intraperitoneal; 2, 4, 6 and 9 hours
Description: The acute anithypertensive activity of test compounds was determined in rats made hypertensive by the procedure of Grollman (Proc. Soc. Exper Biol. Med., 57: 102 [1944]). Female rats weighing between 60 and 100 g were anesthetized with ether, the right kidney approached through a flank retroperitoneal incision, decapsulated and tied with a figure-of-eight-ligature. The animals were left to recover and two weeks later were again anesthetized and the contralateral kidney removed. Four weeks after the second operation the rats were subjected to indirect blood pressure measurements and those showing systolic pressure values greater than 160 mmHg were selected for drug testing.
Blood pressure was measured in the tail with an inflatable occluding cuff placed at the base of the extremity and a pulse detector located distally. The cuff was inflated to approximately 300 mmHg and was slowly deflated until pulsations appeared, indicating the level of systolic pressure; diastolic pressure was not recorded by this procedure. All measurements were carried out in unanesthetized, unsedated animals maintained in a warm environment during the recording procedure and for at least 6 hours before. In all cases, three pressure readings were obtained in succession and mean values were calculated thereof.
Experiments were carried out in groups of five hypertensive rats in which systolic pressure was determined immediately before and 2, 4, 6 and 9 hours after intraperiotoneal administration of the test compound at a dose of 1 mg/kg. Drugs were diluted from stock solutions with phosphate buffer (Lee et. al., Prostaglandins, 29 [1973]), so as to inject this quantity in a volume of 1 ml/kg. Changes from control blood pressure values were calculated for each interval both in mmHg and in percent, and evaluated for significance by means of Wilcoxon's signed rank test (Wilcoxon, R. and Wilcox, R. A., "Some Rapid Approximate Statistical Procedures," Lederle Laboratories, Pearl River [1964]).

| SMILES | Guinea pig trachea value, carbinol versus methyl ester analogue (guinea pig trachea) | GAS value, carbinol versus methyl ester analogue [1] | Femoral blood flow value, methyl ester versus carbinol [2] | Blood Pressure Hypertensive Rat: activity value [3] |
| --- | --- | --- | --- | --- |
| CCCCC(C)(O)C/C=C/[C@H]1[C@H](O)CC(=O)[C@@H]1CCCCCCC(=O)OC (stereo partly drawn) [TR 4704, Methyl 11α, 16RS-dihydroxy-16-methyl-9-oxoprost-13E-oate, reference compound] | the same | the same | significantly and undesirably higher | 0 |
| CCCCC(O)C/C=C/[C@H]1[C@H](O)CC(=O)[C@@H]1CCCCCCC(=O)OC (stereo partly drawn) [TR 4705, Methyl 11α, 16RS-dihydroxy-9-oxoprost-13E-en-1-oate, reference compound] | the same | the same | slightly higher | 0 |
